Results: US20240287148A1, “ENGINEERED BIOMOLECULES FOR NUTRIENT REPROGRAMMING” (CORNELL UNIVERSITY, priority 2021, published 2024)
Where a SMILES comes first, the peptide text is derived from it. The star is where a group is joined. Cbz = O=C(OCc1ccccc1)*; CH2F = FC*

Legend:
MEF cells [1] = assay: Cell viability assay (ferroptosis) in MEF cells; assay type: cell-based, mouse; details: for cell death under cystine restriction (cell viability): Necrostatin 5 μM, Ferrostatin 1 μM
Description: Cells were seeded into 96-well plates at 3,000 cells per well. After 16 hr, cells were subject to conditions of the indicated experiments. Cells were incubated for 24 hr in their experimental conditions and cell viability was measured using the CellTiter-Blue viability assay (Promega) following the manufacturer's instructions. Relative cell viability in the presence of starvation and/or compounds was normalized to the vehicle-treated controls after background subtraction.

ATF4 = ATF4 expression in MEF cells (western blotting, RT-qPCR of Atf4); assay type: cell-based, mouse; details: for ATF4 induction in cystine-starved cells: cystine deprivation
Description: For cystine and methionine deprivation, the experiment was carried out by incubating cells in DMEM, high glucose, no glutamine, no methionine, no cystine (Thermo Fisher: 21013024) with 10% dialyzed FBS (Sigma Aldrich: F0392). For leucine, histidine, and arginine deprivation, the experiment was carried out by incubating cells in DMEM, high glucose, no arginine, no histidine, no leucine, respectively, (custom prepared by Gibco/Invitrogen) with 10% dialyzed FBS (Sigma Aldrich: F0392). For full amino acid starvation, the experiment was carried out by incubating cells in HBSS buffer (Lonza) with 10% dialyzed FBS (Sigma Aldrich: F0392). Samples were collected at indicated experimental time points.
Following experimental conditions, total RNA was isolated by TRIzol reagent (Invitrogen) and reverse transcription was performed using High-Capacity cDNA Reverse Transcription Kit (Invitrogen). Real-time PCR analysis was conducted using Power SYBR Green PCR Master Mix (Applied Biosystems) and data was generated using a LightCycler 480 Real-Time PCR System (Roche Applied Science). qPCR oligo sequences are listed in Table 4.
(§1) Cells were washed with PBS (Gibco) and then lysed on ice using cell lysis buffer (50 mM Tris [pH7.5], 150 mM NaCl, 1 mM EDTA, 1% Triton X-100, 2 U/ml DNase and protease inhibitor cocktail tablet). The lysates were incubated on ice for 30 min and spun down at 10,000 rpm for 3 mins to collect supernatant. Collected supernatant was measured by protein assay (Bio-Rad: 500-0112) to quantify the protein concentration. Equal amounts of proteins across samples were mixed with SDS-PAGE sample buffer (50 mM Tris [pH6.8], 100 mM dithiothreitol, 2% SDS, 0.1% bromophenol blue, 10% glycerol) and heated for 9 mins at 95° C. Denatured proteins were separated on SDS-PAGE and transferred to PVDF membranes (Fisher). Membranes were blocked in TBS containing 5% non-fat milk and 0.1% Tween-20 for 1 hr. Phospho-proteins were blocked in TBS containing 5% BSA and 0.1% Tween-20 for 1 hr. Blocking was followed by incubation with primary antibodies overnight at 4° C. Membranes were washed using TBST followed by subsequent incubation using horseradish peroxidase-coupled secondary antibodies at room temperature for 1 hr. Immunoblots were washed again using TBST and visualized using enhanced chemiluminescence (ECL-Plus, GE Healthcare).

NRF2 = assay: ARE-driven Fluc reporter assay (NRF2 activity) in MEF cells; assay type: cell-based, mouse; details: cystine starvation 8 hr, BafilomycinA 50 nM or ConcanamycinA 100 nM
Description: (§2) Firefly luciferase reporters were co-transfected with a Renilla reporter plasmid into MEF cells or CTNS knockdown cells for 4 hrs. Transfected cells were treated with amino acid starvation and/or compound treatment at indicated timepoints. Firefly and Renilla luciferase activities were measured using Dual-Luciferase Reporter Assay System (Promega). Relative values of firefly luciferase activities were normalized to Renilla luciferase control.

MEF cells [2] = assay: Lipid peroxidation measurement (C11-BODIPY, flow cytometry) in MEF cells; assay type: cell-based, mouse; details: for lipid oxidation in cystine-starved cells (C11-BODIPY): cystine deprivation 18 hrs, BafA1 50 nM or ConA
Description: Cells were plated in 6-well dishes and followed by indicated treatments. After treatment, cells were incubated with fresh medium containing 2 μM BODIPY 581/591 C11 dye (Invitrogen: D3861) for 15 min. Cells were next collected and washed twice with ice-cold PBS followed by fluorescence-activated cell sorting (FACS) analysis using Thermo Fisher Attune NxT. Fluorescence captured during analysis was gated and plotted using FCS Express 7.

MEF cells [3] = assay: Intracellular cysteine and cystine measurement in MEF cells (HPLC); assay type: cell-based, mouse
Description: Cells were grown on 100 mm dishes until 80-90% confluent. Cells were lysed on ice in lysis buffer (50 mM Tris [pH7.5], 150 mM NaCl, 1 mM EDTA, 1% Triton X-100, 2 U/ml DNase and protease inhibitor cocktail tablet), followed by centrifugation at 10,000 rpm for 8 min at 4° C. The supernatant was collected and 100 μL of sample was mixed with 10 μL TCEP (50 mM in borate buffer [pH 7.4]) (Sigma Aldrich) in a vial and incubated at 25° C. for 10 min.
90 μL of a solution containing 1% TCA and 1 mM EDTA was then added. The total solution was centrifuged for 10 min at 10,000 g at 4° C. 100 μL of the obtained supernatant, 20 μL of 10 mM CNBF solution (4-chloro-3,5-dinitrobenzotrifluoride [Sigma Aldrich: 197017]), 20 μL of methanol, and 50 μL of borate buffer (0.2 M [pH 8.0])) were mixed and incubated at 25° C. for 20 min. Derivatization was terminated with 10 μL of 2M HCl followed by HPLC analysis (see below).
Cells were grown on 100 mm dishes until 80-90% confluent. Cells were lysed on ice in lysis buffer (50 mM Tris [pH7.5], 150 mM NaCl, 1 mM EDTA, 1% Triton X-100, 2 U/ml DNase and protease inhibitor cocktail tablet). 100 μL of sample was mixed with 100 μL of 6%5-Sulfosalicylic Acid Dyhydrate solution (Sigma: S3147), followed by centrifugation at 3,000 g for 15 min at 4° C. The supernatant was collected and 25 μL of freshly made derivatizing solution was added. Samples sat at room temperature for 20 mins, followed by rotary evaporation. Dried material was dissolved in 150 μL of phase A solution followed by HPLC analysis (see below).
All resulting solutions for cysteine, glutathione, and cystine were filtered through a 0.22 μm filter membrane (Millipore Corporation, Belfast, MA, USA) and injected into a chromatographic system. High performance liquid chromatography (HPLC) was performed using a LC-20AT pump with a SPD-20AV UV-vis detector monitored at 270 and 220 nm (Shimadzu, Japan) equip with an Ultra Aqueous C18 column (100 Å, 5 μm, 250 mm×4.6 mm; Restek, USA) at a flow rate of 1 mL/min with a mobile phase containing 0.1% trifluoroacetic acid (TFA) in H2O or acetonitrile. Values were normalized to protein concentration by Bradford assay.

Atf4 promoter = assay: Atf4 promoter-driven Fluc reporter assay in MEF cells; assay type: cell-based, mouse; details: BafilomycinA 50 nM 8 hrs with or without cystine deprivation
Description: as §2

MEF cells [4] = assay: Cell fractionation and western blotting of MEF cells transfected with CysRx; assay type: cell-based, mouse; details: BafilomycinA 50 nM for 12 hrs
Description: as §1
MEF cells were grown in four 15 cm dishes until 80% confluent (˜3×10^8 cells) followed by washing twice with ice-cold PBS. […]

[5] = Body weight of tumor-bearing mice; assay type: in vivo, mouse; details: mice with UMRC6 tumors; IKE 10 mg/kg/2d intraperitoneal; CysRx-TT3 intratumoral
Description: (§3) Previously established UMRC6 tumors were immediately excised from CO2 euthanized mice and minced using a surgical 10 blade. Approximately […] portions of tumor were bilaterally implanted into 6-8-week-old NSG mice. Animals were monitored for tumor growth and randomized into treatment groups when tumors reached 150-200 mm^3 in size. IKE/vehicle treated animals received intraperitoneal injections every other day (10 mg/kg). CysRx-TT3 treatment was conducted via weekly intratumoral (IT) injections (100 μL) for three weeks. Tumors for IT injections were demarcated into four quadrants and an equal volume (25 μL) of CysRx-TT3 was injected into each quadrant. HiBit-TT3 was injected into the other flank as control. Mice were monitored for tumor growth three times per week using digital calipers. Health and body condition were also monitored concurrently. Animals were sacrificed by CO2 euthanasia (3.5 L/min) one week after final administration or when the body condition started to deteriorate. Tumors were excised from the flank using a surgical 10 blade, weighed and either flash frozen or fixed in 4% PFA.

UMRC6 tumors = assay: CysRx treatment of xenografted UMRC6 tumors in mice (tumor growth); assay type: in vivo, mouse; details: IKE 10 mg/kg intraperitoneal every other day, 25 days
Description: as §3
Magnetic resonance imaging (MRI) of mice was conducted using a 1T M3 compact MRI from Aspect Imaging Ltd. Mice were anesthetized using 2.5% isoflurane and placed onto the specimen arm, coil was then placed around the subject and fixed in place. […]

[6] = MEF cells, 24 hrs cystine deprivation, Z-VAD 20 μM
[7] = BafilomycinA 50 nM for 12 hrs, normalized to protein
[8] = MEF cells, cystine deprivation 24 hrs, BafilomycinA 50 nM or ConcanamycinA 100 nM

O=C(O)c1cc(/N=N/c2ccc(S(=O)(=O)Nc3ccccn3)cc2)ccc1O [sulfasalazine]
susceptibility of cells lacking cystinosin (cell viability) (MEF cells [1]; MEF cells with CTNS knockdown, Erastin 20 μM, Sulfsalazine 200 μM): highly susceptible
ferroptosis (cell viability) (MEF cells [1]; MEF cells, 24 hrs, Erastin 20 μM, Sulfsalazine 200 μM): induced

COC(=O)C[C@H](NC(=O)[C@H](C)NC(=O)[C@@H](NC(=O)OCc1ccccc1)C(C)C)C(=O)CF [Z-VAD] (Cbz-Val-Ala-Asp(OMe)-CH2F)
cell death under cystine restriction (cell viability) (MEF cells [1]; [6]): not
reduced cell viability under full amino acid starvation (MEF cells [1]; MEF cells, 24 hrs full amino acid starvation, Z-VAD 20 μM): rescued

CCOC(=O)c1ccc(NC2CCCCC2)c(N)c1 [ferrostatin-1]
cell death under cystine restriction (cell viability) (MEF cells [1]; [6]): prevented

CO/C1=C\C(C)=C\[C@@H](C)[C@@H](O)[C@@H](C)C/C(C)=C/C=C/[C@H](OC)[C@@H]([C@@H](C)[C@@H](O)[C@H](C)[C@@]2(O)C[C@@H](O)[C@H](C)[C@@H](C(C)C)O2)OC1=O [BafA1, bafilomycin A1]
ATF4 induction in cystine-starved cells (ATF4; MEF cells, BafilomycinA 50 nM 8 hrs, ConcanamycinA 100 nM 12 hrs): greatly potentiated
NRF2 activation (ARE Fluc reporter) (NRF2): prevented
lipid oxidation in cystine-starved cells (C11-BODIPY) (MEF cells [2]): significantly reduced
cysteine level (MEF cells [3]; [7]): increase
cystine level (MEF cells [3]; [7]): decrease
cytosolic cysteine level in cystine-starved cells (MEF cells [3]; cystine deprivation, BafilomycinA 50 nM 12 hrs): partially restored
ferroptosis in cystine-starved cells (cell viability) (MEF cells [1]; [8]): prevented
Atf4 promoter-driven Fluc activity (normalized to Renilla) (Atf4 promoter): transcriptional upregulation
CysRx level (western blotting) (MEF cells [4]): CysRx accumulation

C[C@@H]1C[C@@H]([C@H](O)CC2CC(=O)NC(=O)C2)C(=O)[C@@H](C)C1 [cycloheximide]
intracellular cyst(e)ine levels (MEF cells [3]; 12 hrs amino acid starvation, Cycloheximide 50 μM): largely restored
ferroptosis induced by erastin and sulfasalazine (cell viability) (MEF cells [1]; MEF cells, 24 hrs Erastin 20 μM or Sulfsalazine 200 μM, Cycloheximide 50 μM): partially rescued
increased ferroptosis susceptibility under cystine deprivation (cell viability, lipid ROS) (MEF cells [1]; MEF cells, 24 hrs cystine deprivation, Cycloheximide 50 μM): prevented

CC(C)n1cnc2c(NCCc3ccc(O)cc3)nc(-c3csc4ccccc34)nc21 [SR1]
ATF4 induction in cystine-starved cells (ATF4; MEF cells, SR1 200 nM or Indirubin 2 μM): significantly reduced
ferroptosis of cystine-starved cells (cell viability) (MEF cells [1]; MEF cells, cystine deprivation 24 hrs, SR1 200 nM or Indirubin 2 μM): promoted

CC(C)Oc1ccc(C(=O)Cn2ccnc2)cc1-n1c(CN2CCN(C(=O)COc3ccc(Cl)cc3)CC2)nc2ccccc2c1=O [IKE, imidazole ketone erastin]
body weight [5]: weight loss
tumor growth (UMRC6 tumors): suppressed

N[C@@H](CCS(=O)(=O)O)C(=O)O [homocysteic acid]
ATF4 expression (ATF4; MEF cells, HCA 10 mM): induced

CN1C(=O)C(Cc2c[nH]c3ccccc23)NC1=S (stereo not drawn) [necrostatin, necrostatin-1]
cell death under cystine restriction (cell viability) (MEF cells [1]; [6]): not

C/C=C/[C@H]1O[C@@](O)([C@@H](C)[C@H](O)[C@H](C)[C@H]2OC(=O)/C(OC)=C/C(C)=C/[C@@H](C)[C@@H](O)[C@@H](CC)[C@@H](O)[C@H](C)C/C(C)=C/C=C/[C@@H]2OC)C[C@@H](O[C@H]2C[C@@H](O)[C@H](OC(N)=O)[C@@H](C)O2)[C@@H]1C [ConA, concanamycin A]
NRF2 activation (ARE Fluc reporter) (NRF2): prevented
lipid oxidation in cystine-starved cells (C11-BODIPY) (MEF cells [2]): significantly reduced
ferroptosis in cystine-starved cells (cell viability) (MEF cells [1]; [8]): prevented

O=C1O[C@H]([C@@H](O)CO)C(O)=C1O [ascorbic acid]
ATF4 induction upon cystine starvation (ATF4; MEF cells, 8 hrs cystine starvation, Ascorbic Acid 20 μM): little effects
ATF4 expression induced by homocysteic acid (HCA) (ATF4; MEF cells, HCA 10 mM, Ascorbic Acid 20 μM): attenuated

CCCCS(=N)(=O)CCC(N)C(=O)O (stereo not drawn) [BSO, buthionine sulfoximine]
ATF4 expression (ATF4; MEF cells, BSO 10 μM, 8 hrs): induced

O=C(COc1ccc(Cl)cc1)NC1CCC(NC(=O)COc2ccc(Cl)cc2)CC1 (stereo not drawn) [ISRIB]
cystine shortage-induced ATF4 upregulation (western blotting) (ATF4; eIF2a(S/S) and eIF2a(A/A) MEF cells, 8 hrs amino acid starvation, ISRIB 100 nM): insensitive

NCCS [cysteamine]
ATF4 induction under the cystine rich condition (ATF4; MEF cells, Cysteamine 0.5 mM, 12 hrs): pronounced ATF4 induction
lipid oxidation in cystine-starved cells (MEF cells [2]; cystine deprivation, Cysteamine 0.5 mM for 18 hrs): eliminated
cysteine in the cytosol (MEF cells [3]; Cysteamine 0.5 mM, 12 hrs): increase
lysosomal cystine level (MEF cells [3]; Cysteamine 0.5 mM, 12 hrs): readily depleted
ferroptotic cell death of cells lacking cystinosin (MEF cells [1]; MEF cells with CTNS knockdown, 24 hrs cystine deprivation, Cysteamine 0.5 mM): rescued
ferroptosis in cystine-starved cells (cell viability) (MEF cells [1]; MEF cells, cystine deprivation, Cysteamine 0.5 mM for 24 hrs): rescued
